The target of one assay is Fibroblast growth factor 2 (Homo sapiens, UniProt P09038). Description: Binding affinity to basic fibroblast growth factor (unknown origin) using sugar chip immobilized compound by surface plasmon resonance method.
Fibroblast growth factor 2, sequence (P09038 143-288 limits assumed): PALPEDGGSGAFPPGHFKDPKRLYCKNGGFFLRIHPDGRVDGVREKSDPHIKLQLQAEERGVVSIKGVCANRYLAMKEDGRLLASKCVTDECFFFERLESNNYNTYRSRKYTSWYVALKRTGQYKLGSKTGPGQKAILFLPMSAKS
Details: not given; call rule not given here
Background: Surface plasmon resonance follows binding to a sensor surface in real time, without labels.
In the case of `CC(=O)N[C@H]1[C@@H](OC[C@@H](O)[C@@H](O)[C@H](O)[C@@H](O)CNc2cccc(NC(=O)CCCCC3CCSS3)c2)O[C@H](CO)[C@H](O)[C@@H]1O[C@@H]1O[C@H](C(=O)[O-])[C@@H](O)[C@H](O)[C@H]1O.[Na+]` (stereo partly specified), the Kd entry is listed as “Not Active”.
The same measure, in the same setting: for `CC(=O)N[C@H]1[C@@H](OC[C@@H](O)[C@@H](O)[C@H](O)[C@@H](O)CNc2cccc(NC(=O)CCCCC3CCSS3)c2)O[C@H](CO)[C@H](OS(=O)(=O)[O-])[C@@H]1O[C@@H]1O[C@H](C(=O)[O-])[C@@H](O)[C@H](O)[C@H]1O.[Na+].[Na+]` (mixture of isomers) the value was “Not Active”.

The assay is the same for the next values; noted with them: read-out: Kd.
In the case of `CC(=O)N[C@H]1[C@@H](OC[C@@H](O)[C@@H](O)[C@H](O)[C@@H](O)CNc2cccc(NC(=O)CCCCC3CCSS3)c2)O[C@H](COS(=O)(=O)O)[C@H](OS(=O)(=O)O)[C@@H]1O[C@@H]1O[C@H](C(=O)O)[C@@H](O)[C@H](O)[C@H]1O` (stereo partly specified), the Kd was 16 nM.
Consider `CC(=O)N[C@H]1[C@@H](OC[C@@H](O)[C@@H](O)[C@H](O)[C@@H](O)CNc2cccc(NC(=O)CCCCC3CCSS3)c2)O[C@H](CO)[C@H](OS(=O)(=O)O)[C@@H]1O[C@@H]1O[C@H](C(=O)O)[C@@H](O)[C@H](OS(=O)(=O)O)[C@H]1O` (stereo partly specified), for which the Kd was found to be 41 nM.
On the same count and under the same terms, the figure for `CC(=O)N[C@H]1[C@@H](OC[C@@H](O)[C@@H](O)[C@H](O)[C@@H](O)CNc2cccc(NC(=O)CCCCC3CCSS3)c2)O[C@H](COS(=O)(=O)O)[C@H](O)[C@@H]1O[C@@H]1O[C@H](C(=O)O)[C@@H](O)[C@H](O)[C@H]1O` (mixture of isomers) is 36 nM; for `CC(=O)N[C@H]1[C@@H](OC[C@@H](O)[C@@H](O)[C@H](O)[C@@H](O)CNc2cccc(NC(=O)CCCCC3CCSS3)c2)O[C@H](CO)[C@H](O)[C@@H]1O[C@@H]1O[C@H](C(=O)O)[C@@H](O)[C@H](O)[C@H]1OS(=O)(=O)O` (mixture of isomers) it is 62 nM; for `CC(=O)N[C@H]1[C@@H](OC[C@@H](O)[C@@H](O)[C@H](O)[C@@H](O)CNc2cccc(NC(=O)CCCCC3CCSS3)c2)O[C@H](CO)[C@H](O)[C@@H]1O[C@@H]1O[C@H](C(=O)O)[C@@H](O)[C@H](OS(=O)(=O)O)[C@H]1O` (mixture of isomers) it is 25 nM.
As for `CC(=O)N[C@H]1[C@@H](OC[C@@H](O)[C@@H](O)[C@H](O)[C@@H](O)CNc2cccc(NC(=O)CCCCC3CCSS3)c2)O[C@H](CO)[C@H](OS(=O)(=O)O)[C@@H]1O[C@@H]1O[C@H](C(=O)O)[C@@H](O)[C@H](O)[C@H]1OS(=O)(=O)O` (mixture of isomers), the Kd is 41 nM.
Same read-out and setting: the figure for `CC(=O)N[C@H]1[C@@H](OC[C@@H](O)[C@@H](O)[C@H](O)[C@@H](O)CNc2cccc(NC(=O)CCCCC3CCSS3)c2)O[C@H](COS(=O)(=O)O)[C@H](O)[C@@H]1O[C@@H]1O[C@H](C(=O)O)[C@@H](O)[C@H](O)[C@H]1OS(=O)(=O)O` (mixture of isomers) is 23 nM.
Still for that read-out and setting: for `CC(=O)N[C@H]1[C@@H](OC[C@@H](O)[C@@H](O)[C@H](O)[C@@H](O)CNc2cccc(NC(=O)CCCCC3CCSS3)c2)O[C@H](COS(=O)(=O)O)[C@H](O)[C@@H]1O[C@@H]1O[C@H](C(=O)O)[C@@H](O)[C@H](OS(=O)(=O)O)[C@H]1O` (mixture of isomers) the value was 147 nM; for `CC(=O)N[C@H]1[C@@H](OC[C@@H](O)[C@@H](O)[C@H](O)[C@@H](O)CNc2cccc(NC(=O)CCCCC3CCSS3)c2)O[C@H](CO)[C@H](O)[C@@H]1O[C@@H]1O[C@H](C(=O)O)[C@@H](O)[C@H](OS(=O)(=O)O)[C@H]1OS(=O)(=O)O` (mixture of isomers), 95 nM; for `CC(=O)N[C@H]1[C@@H](OC[C@@H](O)[C@@H](O)[C@H](O)[C@@H](O)CNc2cccc(NC(=O)CCCCC3CCSS3)c2)O[C@H](COS(=O)(=O)O)[C@H](OS(=O)(=O)O)[C@@H]1O[C@@H]1O[C@H](C(=O)O)[C@@H](O)[C@H](O)[C@H]1OS(=O)(=O)O` (mixture of isomers), 21 nM.
On the same count and under the same terms, the figure for `CC(=O)N[C@H]1[C@@H](OC[C@@H](O)[C@@H](O)[C@H](O)[C@@H](O)CNc2cccc(NC(=O)CCCCC3CCSS3)c2)O[C@H](COS(=O)(=O)O)[C@H](OS(=O)(=O)O)[C@@H]1O[C@@H]1O[C@H](C(=O)O)[C@@H](O)[C@H](OS(=O)(=O)O)[C@H]1O` (mixture of isomers) is 60 nM.
Turning to `CC(=O)N[C@H]1[C@@H](OC[C@@H](O)[C@@H](O)[C@H](O)[C@@H](O)CNc2cccc(NC(=O)CCCCC3CCSS3)c2)O[C@H](CO)[C@H](OS(=O)(=O)O)[C@@H]1O[C@@H]1O[C@H](C(=O)O)[C@@H](O)[C@H](OS(=O)(=O)O)[C@H]1OS(=O)(=O)O` (mixture of isomers), the Kd was 52 nM.
On to `CC(=O)N[C@H]1[C@@H](OC[C@@H](O)[C@@H](O)[C@H](O)[C@@H](O)CNc2cccc(NC(=O)CCCCC3CCSS3)c2)O[C@H](COS(=O)(=O)O)[C@H](O)[C@@H]1O[C@@H]1O[C@H](C(=O)O)[C@@H](O)[C@H](OS(=O)(=O)O)[C@H]1OS(=O)(=O)O` (mixture of isomers), for which the Kd is 99 nM.
On to `CC(=O)N[C@H]1[C@@H](OC[C@@H](O)[C@@H](O)[C@H](O)[C@@H](O)CNc2cccc(NC(=O)CCCCC3CCSS3)c2)O[C@H](COS(=O)(=O)O)[C@H](OS(=O)(=O)O)[C@@H]1O[C@@H]1O[C@H](C(=O)O)[C@@H](O)[C@H](OS(=O)(=O)O)[C@H]1OS(=O)(=O)O` (mixture of isomers), for which the Kd came to 4.9 nM.

In general, Kd refers to the concentration at which binding is half-saturated.

(Values after ChEMBL document CHEMBL3397042, “Synthesis of a chondroitin sulfate disaccharide library and a GAG-binding protein interaction analysis” (Bioorg Med Chem Lett, 2015).)
